Laboratory results published in ChEMBL document CHEMBL4507276 (2021).

Assays:
[1] = biological target: T1, Serine/threonine-protein kinase Sgk3 (Homo sapiens) (UniProt Q96BR1); conditions: Compound concentration 1000.0 nM
T1 sequence (whole entry): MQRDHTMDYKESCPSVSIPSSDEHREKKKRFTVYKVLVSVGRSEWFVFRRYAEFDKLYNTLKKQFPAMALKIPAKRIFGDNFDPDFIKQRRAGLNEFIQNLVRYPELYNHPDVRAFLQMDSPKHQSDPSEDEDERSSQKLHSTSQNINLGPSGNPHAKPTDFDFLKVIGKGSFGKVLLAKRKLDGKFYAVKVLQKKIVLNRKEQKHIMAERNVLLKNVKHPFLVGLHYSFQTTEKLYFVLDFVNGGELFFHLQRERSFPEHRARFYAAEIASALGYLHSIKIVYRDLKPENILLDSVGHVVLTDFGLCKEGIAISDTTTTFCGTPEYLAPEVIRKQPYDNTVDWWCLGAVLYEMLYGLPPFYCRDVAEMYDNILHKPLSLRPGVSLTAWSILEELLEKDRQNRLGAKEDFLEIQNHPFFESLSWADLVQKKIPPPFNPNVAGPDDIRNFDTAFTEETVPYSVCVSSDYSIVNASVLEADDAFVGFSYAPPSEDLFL

[2] = biological target: T2, Ephrin type-B receptor 2 (Homo sapiens) (UniProt P29323); conditions: Compound concentration 1000.0 nM
T2 sequence (whole entry): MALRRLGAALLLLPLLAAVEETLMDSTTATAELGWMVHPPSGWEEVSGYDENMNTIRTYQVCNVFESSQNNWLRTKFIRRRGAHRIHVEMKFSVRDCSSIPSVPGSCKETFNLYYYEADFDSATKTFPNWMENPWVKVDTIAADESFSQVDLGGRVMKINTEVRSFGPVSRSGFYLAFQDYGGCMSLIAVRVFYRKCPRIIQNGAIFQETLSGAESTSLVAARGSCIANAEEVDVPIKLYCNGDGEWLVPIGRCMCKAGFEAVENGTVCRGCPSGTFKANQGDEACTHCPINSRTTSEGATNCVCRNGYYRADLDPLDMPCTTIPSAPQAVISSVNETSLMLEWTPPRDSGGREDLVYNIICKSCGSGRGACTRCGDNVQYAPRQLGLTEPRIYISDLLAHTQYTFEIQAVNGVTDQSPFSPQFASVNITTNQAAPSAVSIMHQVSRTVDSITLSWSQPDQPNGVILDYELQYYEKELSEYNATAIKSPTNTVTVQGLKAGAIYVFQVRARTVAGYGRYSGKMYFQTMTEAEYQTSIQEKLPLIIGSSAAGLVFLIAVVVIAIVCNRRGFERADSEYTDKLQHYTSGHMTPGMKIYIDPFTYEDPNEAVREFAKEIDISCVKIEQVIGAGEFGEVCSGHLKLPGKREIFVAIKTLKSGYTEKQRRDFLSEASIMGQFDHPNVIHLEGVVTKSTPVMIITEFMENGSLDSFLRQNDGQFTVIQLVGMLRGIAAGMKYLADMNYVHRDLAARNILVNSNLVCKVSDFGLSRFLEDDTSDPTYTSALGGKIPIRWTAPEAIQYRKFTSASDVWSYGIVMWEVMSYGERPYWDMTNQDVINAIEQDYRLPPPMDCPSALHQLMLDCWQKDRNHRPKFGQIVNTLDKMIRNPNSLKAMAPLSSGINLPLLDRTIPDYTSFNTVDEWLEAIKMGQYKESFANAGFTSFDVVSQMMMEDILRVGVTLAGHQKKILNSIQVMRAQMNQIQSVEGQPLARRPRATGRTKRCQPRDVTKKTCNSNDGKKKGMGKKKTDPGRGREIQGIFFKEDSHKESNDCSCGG

[3] = biological target: Mast/stem cell growth factor receptor Kit (Homo sapiens) (UniProt P10721); conditions: Compound concentration 1000.0 nM
Mast/stem cell growth factor receptor Kit (Homo sapiens), sequence (P10721 whole entry): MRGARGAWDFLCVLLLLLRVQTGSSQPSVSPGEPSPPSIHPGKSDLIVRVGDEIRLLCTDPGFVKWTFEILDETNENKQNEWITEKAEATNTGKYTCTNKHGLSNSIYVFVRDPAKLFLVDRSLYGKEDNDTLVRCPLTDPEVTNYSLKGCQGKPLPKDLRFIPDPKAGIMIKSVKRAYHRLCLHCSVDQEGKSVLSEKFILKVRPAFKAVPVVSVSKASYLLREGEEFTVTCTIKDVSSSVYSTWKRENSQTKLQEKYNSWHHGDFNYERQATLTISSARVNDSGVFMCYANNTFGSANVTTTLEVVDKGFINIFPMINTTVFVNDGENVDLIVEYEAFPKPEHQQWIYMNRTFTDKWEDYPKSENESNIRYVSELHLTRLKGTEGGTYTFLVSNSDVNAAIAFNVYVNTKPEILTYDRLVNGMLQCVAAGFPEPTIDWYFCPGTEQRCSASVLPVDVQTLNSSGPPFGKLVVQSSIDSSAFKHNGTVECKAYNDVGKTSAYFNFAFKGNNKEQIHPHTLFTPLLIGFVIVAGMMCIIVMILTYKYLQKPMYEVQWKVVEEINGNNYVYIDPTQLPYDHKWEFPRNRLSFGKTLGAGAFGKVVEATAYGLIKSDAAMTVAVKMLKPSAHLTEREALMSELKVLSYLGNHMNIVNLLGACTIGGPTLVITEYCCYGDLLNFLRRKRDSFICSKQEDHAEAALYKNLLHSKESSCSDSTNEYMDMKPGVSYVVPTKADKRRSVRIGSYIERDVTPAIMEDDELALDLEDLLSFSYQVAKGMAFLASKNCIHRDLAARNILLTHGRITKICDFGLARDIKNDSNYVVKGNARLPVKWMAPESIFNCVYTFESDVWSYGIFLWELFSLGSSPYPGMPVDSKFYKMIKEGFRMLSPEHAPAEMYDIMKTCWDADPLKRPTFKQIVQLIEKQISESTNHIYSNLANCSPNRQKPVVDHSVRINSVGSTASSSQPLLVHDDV

[4] = biological target: T3, Aurora kinase C (Homo sapiens) (UniProt Q9UQB9); conditions: Compound concentration 1000.0 nM
T3 sequence (whole entry): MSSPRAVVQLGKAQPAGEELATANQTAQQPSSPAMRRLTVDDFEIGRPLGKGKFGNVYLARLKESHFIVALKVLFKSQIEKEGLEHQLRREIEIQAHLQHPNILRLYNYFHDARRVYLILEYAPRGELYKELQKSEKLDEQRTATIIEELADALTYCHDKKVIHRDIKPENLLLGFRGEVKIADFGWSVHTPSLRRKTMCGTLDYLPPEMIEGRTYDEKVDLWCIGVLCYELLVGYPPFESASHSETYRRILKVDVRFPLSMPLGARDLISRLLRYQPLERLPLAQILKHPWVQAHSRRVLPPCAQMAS

[5] = biological target: Receptor tyrosine-protein kinase erbB-2 (Homo sapiens) (UniProt P04626); conditions: Compound concentration 1000.0 nM
Receptor tyrosine-protein kinase erbB-2 (Homo sapiens), sequence (P04626 whole entry): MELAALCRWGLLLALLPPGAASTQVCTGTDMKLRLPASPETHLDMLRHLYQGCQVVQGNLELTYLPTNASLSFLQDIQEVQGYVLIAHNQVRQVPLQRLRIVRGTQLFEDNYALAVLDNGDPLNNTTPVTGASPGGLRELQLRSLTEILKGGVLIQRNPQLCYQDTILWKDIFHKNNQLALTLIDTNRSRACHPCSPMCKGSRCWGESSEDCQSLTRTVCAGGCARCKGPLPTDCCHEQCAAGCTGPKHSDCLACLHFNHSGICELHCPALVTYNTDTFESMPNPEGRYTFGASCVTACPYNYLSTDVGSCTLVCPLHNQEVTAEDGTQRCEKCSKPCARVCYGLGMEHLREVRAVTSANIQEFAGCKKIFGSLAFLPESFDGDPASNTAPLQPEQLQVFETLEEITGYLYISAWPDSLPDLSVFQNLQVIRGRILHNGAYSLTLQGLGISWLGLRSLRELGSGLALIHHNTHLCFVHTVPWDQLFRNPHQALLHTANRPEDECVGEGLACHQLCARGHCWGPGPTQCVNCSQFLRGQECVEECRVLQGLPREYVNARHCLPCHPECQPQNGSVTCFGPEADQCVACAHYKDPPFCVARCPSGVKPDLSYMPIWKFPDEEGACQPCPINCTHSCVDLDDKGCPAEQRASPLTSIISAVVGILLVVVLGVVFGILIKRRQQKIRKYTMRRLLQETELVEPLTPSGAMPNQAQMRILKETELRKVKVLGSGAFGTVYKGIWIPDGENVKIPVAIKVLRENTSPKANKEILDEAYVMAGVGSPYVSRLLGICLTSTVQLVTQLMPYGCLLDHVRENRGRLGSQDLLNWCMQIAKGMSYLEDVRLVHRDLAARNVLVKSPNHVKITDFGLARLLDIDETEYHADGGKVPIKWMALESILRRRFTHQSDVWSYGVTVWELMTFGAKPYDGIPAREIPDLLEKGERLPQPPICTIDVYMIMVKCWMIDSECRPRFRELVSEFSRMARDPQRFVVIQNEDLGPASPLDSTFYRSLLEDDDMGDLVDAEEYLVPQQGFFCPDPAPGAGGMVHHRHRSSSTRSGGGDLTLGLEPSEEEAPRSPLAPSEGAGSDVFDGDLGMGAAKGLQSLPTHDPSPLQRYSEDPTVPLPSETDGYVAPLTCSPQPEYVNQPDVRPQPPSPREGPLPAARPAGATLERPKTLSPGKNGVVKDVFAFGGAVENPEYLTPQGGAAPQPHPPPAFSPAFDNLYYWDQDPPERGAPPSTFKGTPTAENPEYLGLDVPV

[6] = test system: Hepatocyte growth factor receptor (Homo sapiens), P08581 [Y1235D]; conditions: Compound concentration 1000.0 nM
[7] = test system: Receptor-type tyrosine-protein kinase FLT3 (Homo sapiens), P36888 [UNDEFINED MUTATION]; conditions: Compound concentration 1000.0 nM
Receptor-type tyrosine-protein kinase FLT3 (Homo sapiens), P36888 [UNDEFINED MUTATION], sequence (P36888 whole entry, looked up, change not shown): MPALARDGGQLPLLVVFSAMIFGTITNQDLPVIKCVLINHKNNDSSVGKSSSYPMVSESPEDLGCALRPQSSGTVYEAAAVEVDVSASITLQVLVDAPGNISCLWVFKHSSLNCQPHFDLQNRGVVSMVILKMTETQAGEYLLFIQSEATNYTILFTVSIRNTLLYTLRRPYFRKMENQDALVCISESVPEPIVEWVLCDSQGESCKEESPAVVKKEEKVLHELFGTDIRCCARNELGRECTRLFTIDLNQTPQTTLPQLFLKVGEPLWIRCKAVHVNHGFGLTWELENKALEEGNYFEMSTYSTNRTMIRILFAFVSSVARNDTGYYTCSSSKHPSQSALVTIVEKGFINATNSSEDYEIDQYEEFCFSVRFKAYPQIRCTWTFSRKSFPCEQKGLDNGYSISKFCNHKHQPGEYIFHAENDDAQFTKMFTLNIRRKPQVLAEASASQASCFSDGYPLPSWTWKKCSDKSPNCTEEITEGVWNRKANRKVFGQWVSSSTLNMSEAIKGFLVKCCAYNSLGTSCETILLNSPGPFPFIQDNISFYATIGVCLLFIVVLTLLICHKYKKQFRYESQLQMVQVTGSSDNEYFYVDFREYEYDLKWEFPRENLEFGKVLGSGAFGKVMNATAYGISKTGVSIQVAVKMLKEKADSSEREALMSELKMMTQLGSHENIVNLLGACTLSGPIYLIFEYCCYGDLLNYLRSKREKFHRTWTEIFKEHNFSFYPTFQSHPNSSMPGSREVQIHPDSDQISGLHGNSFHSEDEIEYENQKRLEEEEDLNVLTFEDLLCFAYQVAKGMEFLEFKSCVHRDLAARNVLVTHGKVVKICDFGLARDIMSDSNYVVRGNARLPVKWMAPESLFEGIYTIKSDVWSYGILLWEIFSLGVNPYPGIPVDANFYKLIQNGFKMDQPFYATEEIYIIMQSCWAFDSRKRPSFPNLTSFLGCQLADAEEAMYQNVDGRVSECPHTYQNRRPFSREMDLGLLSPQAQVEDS

[8] = biological target: Serine/threonine-protein kinase WNK4 (Homo sapiens) (UniProt Q96J92); conditions: Compound concentration 1000.0 nM
Serine/threonine-protein kinase WNK4 (Homo sapiens), sequence (Q96J92 whole entry): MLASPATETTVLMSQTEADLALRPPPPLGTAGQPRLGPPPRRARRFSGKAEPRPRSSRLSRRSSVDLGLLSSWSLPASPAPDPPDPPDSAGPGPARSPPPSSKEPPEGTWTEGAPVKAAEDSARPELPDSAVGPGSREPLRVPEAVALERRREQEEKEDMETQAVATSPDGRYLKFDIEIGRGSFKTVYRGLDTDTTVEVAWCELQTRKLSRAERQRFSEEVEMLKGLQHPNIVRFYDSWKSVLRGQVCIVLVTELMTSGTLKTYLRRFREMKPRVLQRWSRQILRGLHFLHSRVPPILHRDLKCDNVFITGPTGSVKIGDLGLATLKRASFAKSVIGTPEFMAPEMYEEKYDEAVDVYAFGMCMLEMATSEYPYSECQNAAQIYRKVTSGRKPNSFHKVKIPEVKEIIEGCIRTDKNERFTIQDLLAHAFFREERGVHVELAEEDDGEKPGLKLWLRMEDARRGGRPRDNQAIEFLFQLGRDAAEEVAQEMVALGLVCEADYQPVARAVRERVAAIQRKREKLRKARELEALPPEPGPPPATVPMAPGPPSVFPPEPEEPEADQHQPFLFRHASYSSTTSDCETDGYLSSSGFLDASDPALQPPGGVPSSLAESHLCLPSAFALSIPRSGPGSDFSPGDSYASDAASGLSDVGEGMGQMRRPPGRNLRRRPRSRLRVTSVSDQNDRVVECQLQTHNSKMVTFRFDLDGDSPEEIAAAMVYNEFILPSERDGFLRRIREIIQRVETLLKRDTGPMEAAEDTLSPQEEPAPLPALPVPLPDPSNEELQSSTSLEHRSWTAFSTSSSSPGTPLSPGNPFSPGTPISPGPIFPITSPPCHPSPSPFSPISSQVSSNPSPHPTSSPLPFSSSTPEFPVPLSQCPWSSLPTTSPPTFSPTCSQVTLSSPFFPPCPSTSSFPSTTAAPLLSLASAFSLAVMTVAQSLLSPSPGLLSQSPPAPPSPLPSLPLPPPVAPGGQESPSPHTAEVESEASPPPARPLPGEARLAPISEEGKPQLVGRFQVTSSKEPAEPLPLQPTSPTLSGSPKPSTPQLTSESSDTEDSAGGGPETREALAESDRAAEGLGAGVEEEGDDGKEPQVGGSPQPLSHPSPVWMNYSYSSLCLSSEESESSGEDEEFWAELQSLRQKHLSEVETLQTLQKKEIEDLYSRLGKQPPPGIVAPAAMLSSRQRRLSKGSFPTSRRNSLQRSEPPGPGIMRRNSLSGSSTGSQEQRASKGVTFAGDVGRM

[9] = biological target: T4, 5-hydroxytryptamine receptor 3A (Homo sapiens) (UniProt P46098); conditions: Compound concentration 10.0 uM
T4 sequence (whole entry): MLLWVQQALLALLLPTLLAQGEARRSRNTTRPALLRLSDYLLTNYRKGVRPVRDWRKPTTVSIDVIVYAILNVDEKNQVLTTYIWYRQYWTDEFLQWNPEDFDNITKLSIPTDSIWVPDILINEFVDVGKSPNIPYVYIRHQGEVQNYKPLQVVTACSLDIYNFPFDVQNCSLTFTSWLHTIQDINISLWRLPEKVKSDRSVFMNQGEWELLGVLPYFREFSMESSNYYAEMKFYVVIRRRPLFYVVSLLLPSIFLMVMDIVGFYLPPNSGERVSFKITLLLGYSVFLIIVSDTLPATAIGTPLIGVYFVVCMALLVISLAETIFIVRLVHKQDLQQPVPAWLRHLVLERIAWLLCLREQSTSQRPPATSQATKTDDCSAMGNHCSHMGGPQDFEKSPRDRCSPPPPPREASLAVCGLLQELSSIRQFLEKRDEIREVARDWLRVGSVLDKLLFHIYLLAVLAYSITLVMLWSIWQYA

CN(C)C(=O)Cn1cc(-c2nc(C3(c4ccc(-c5cnc(N)nc5)cc4)CC3)no2)cn1 [BI 0153]
inactive: residual activity [1] 75% | residual activity [2] 70% | residual activity [3] 93% | residual activity [4] 100% | residual activity [5] 80% | residual activity [6] 98% | residual activity [7] 85% | residual activity [8] 80% | inhibition [9] -8.52%

CN(C)C(=O)Cn1cc(-c2nc([C@@](C)(c3ccc(-c4cnc(N)nc4)cc3)C3CC3)no2)cn1 [BI 665915]
inactive: residual activity [1] 76% | residual activity [2] 87% | residual activity [3] 87% | residual activity [4] 100% | residual activity [5] 100% | residual activity [6] 96% | residual activity [7] 100% | residual activity [8] 93% | inhibition [9] -2.76%
